Reference: patent EP2246329A1, “4(1H)-pyridinone derivatives and their use as antimalaria agents” (Glaxo Group Limited, priority 2009, dated 2010)

The compounds below were run on Plasmodium falciparum (assay: In vitro anti-malarial activity against Plasmodium falciparum, IC50 assay / [3H]-Hypoxanthine incorporation assay). Details: Erythrocyte; Plasmodium falciparum strains in parasitized red blood cells, [3H]-hypoxanthine incorporation, 48 hours at 37°C.
Assay type: cell-based
Method: The compounds of this invention may be tested in one of several biological assays to determine the concentration of compound which is required to have a given pharmacological effect. In vitro anti-malarial activity against Plasmodium falciparum. IC50 assay / [^3H]-Hypoxanthine assay
The culture medium comprised RPMI 1640 with 25mM HEPES, sodium bicarbonate and glutamine (GIBCO™ cat. ref.: 52400), supplemented with 10% of pooled human sera AB (Irvine Scientific, cat. ref.: 5009) and HT supplement (0.15 mM hypoxanthine and 24 µM thymidine), (GIBCO™ cat. ref.: 41065). Human sera were decomplemented 30 min. at 56°C, aliquoted and stored frozen at -20°C until use in this culture medium.
This culture medium ("complete medium") was usually prepared fresh just before use and pre-warmed to 37°C.
Red blood cells O+ stock suspensions were prepared from whole blood bags coming from incomplete blood donation, provided by the Spanish Red Cross (<25 days after sampling). This "whole blood" was aliquoted and stored at 4°C.
To prepare red blood cells for the assay, the whole blood was centrifuged and washed 3 times with RPMI without serum. The upper phase, containing white blood cells was removed. The washed red blood cells were kept as a 50 % suspension in complete medium. The prepared cells were stored at 4°C and were employed in the assay at any time up to 4 days after preparation.
Test compounds were dissolved at 2 mg/ml in 100% DMSO on the day of the assay. If necessary, complete dissolution was achieved by gentle heating (the mixture was heated at a temperature <37°C) and sonication (sonication bath).
For IC50 determinations, 10 serial 2-fold dilutions were prepared in complete medium in the presence of a constant amount of DMSO. Any obvious signs of insolubility of the stock solutions in 100% DMSO or precipitation when these solutions were diluted in assay media, were recorded.
Plasmodium falciparum strains were maintained in complete medium at an hematocrit of 5% in continuous culture using a method adapted from that published by Trager and Jensen(1) and Traeger(2).
The parasitemia was calculated by counting the percentage of parasitized erythrocytes by optical microscopy. Thin films of blood were made every day from each culture flask, fixed with methanol and stained for 10 min. in Giemsa (Merck, cat. ref.: 1.09204) at 10 % in buffered water pH 7.2. The glass slides were observed and counted with an optical microscope (Nikon, Eclipse E200) equipped with a 100 X immersion oil objective.
The culture was maintained at an hematocrit of 5%, with a daily change of medium and was diluted when parasitemia had reached about 5%.
[^3H] Hypoxanthine incorporation assay was conducted using a method adapted from Desjardins et al. (3). The assays were performed in 96 wells flat bottom microplates. • 1. Serial dilutions of the test compounds (50µl of a 5X solution / well) were deposited in duplicate. Compounds of the invention were tested in this assay. Chloroquine and Atovaquone were used as control compounds for each assay. • 2. […] [^3H]-Hypoxanthine (Amersham Biosciences, cat. ref.: TRK74) was added extemporaneously to the inoculum suspension at a concentration of 1 µCi/ml (equating to […]). 200 µl of the resulting suspension was distributed into each well (other than the control well H12 described below) leading to a final volume of 250 µl per well, at 2% of hematocrit and 0.5 % of parasitemia / well. • 4. […]

| SMILES | IC50 [µg/mL] |
| --- | --- |
| Cc1[nH]c(C)c(-c2ccc(OCCN3CCC(C(F)(F)F)CC3)nc2)c(=O)c1Cl.Cl [Example 68, 5-chloro-2,6-dimethyl-6'-({2-[4-(trifluoromethyl)-1-piperidinyl]ethyl}oxy)-3,3'-bipyridin-4(1H)-one hydrochloride] | 0.21 |
| Cc1[nH]c(CO)c(-c2ccc(-c3ccc(CN4CCC(c5ccc(OC(F)(F)F)cc5)CC4)cc3)cc2)c(=O)c1Cl.Cl [Example 62, 3-chloro-6-(hydroxymethyl)-2-methyl-5-{4'-[(4-{4-[(trifluoromethyl)oxy]phenyl}-1-piperidinyl)methyl]-4-biphenylyl}-4(1H)-pyridinone hydrochloride] | < 0.125 |
| Cc1[nH]c(CO)c(Cl)c(=O)c1-c1ccc(-c2ccc(CN3CCC(c4ccc(OC(F)(F)F)cc4)CC3)cc2)cc1.Cl [Example 63, 3-chloro-2-(hydroxymethyl)-6-methyl-5-{4'-[(4-{4-[(trifluoromethyl)oxy]phenyl}-1-piperidinyl)methyl]-4-biphenylyl}-4(1H)-pyridinone hydrochloride] | < 0.125 |
| Cc1[nH]c(C)c(-c2cccc(CN(C)Cc3ccc(OC(F)(F)F)cc3)c2)c(=O)c1Cl.Cl [Example 25, 3-Chloro-2,6-dimethyl-5-(3-{[methyl({4-[(trifluoromethyl)oxy]phenyl}methyl)amino]-methyl}phenyl)-4(1H)-pyridinone hydrochloride] | < 0.125 |
| Cc1[nH]c(C)c(-c2ccc(C#CCN(C)Cc3nccs3)cc2)c(=O)c1Cl.Cl [Example 43, 3-Chloro-2,6-dimethyl-5-(4-{3-[methyl(1,3-thiazol-2-ylmethyl)amino]-1-propyn-1-yl}phenyl)-4(1H)-pyridinone hydrochloride] | < 0.125 |
| CCCN(CC#Cc1ccc(-c2c(C)[nH]c(C)c(Cl)c2=O)cc1)Cc1ccc(OC(F)(F)F)cc1.O=C(O)C(F)(F)F [Example 6, 3-Chloro-2,6-dimethyl-5-(4-{3-[propyl({4-[(trifluoromethyl)oxy]phenyl}methyl)amino]-1-propyn-1-yl}phenyl)-4(1H)-pyridinone trifluoroacetate] | < 0.125 |
| Cc1[nH]c(CO)c(-c2ccc(-c3ccc(CN4CCC(c5ccc(OC(F)(F)F)cc5)CC4)cc3)cc2)c(=O)c1Cl [Example 61, 3-chloro-6-(hydroxymethyl)-2-methyl-5-{4'-[(4-{4-[(trifluoromethyl)oxy]phenyl}-1-piperidinyl)methyl]-4-biphenylyl}-4(1H)-pyridinone] | < 0.125 |
| Cc1[nH]c(C)c(-c2ccc(C#CCN3CCC(c4ccc(OC(F)(F)F)cc4)CC3)cc2)c(=O)c1Cl.O=C(O)C(F)(F)F [Example 22, 3-Chloro-2,6-dimethyl-5-{4-[3-(4-{4-[(trifluoromethyl)oxy]phenyl}-1-piperidinyl)-1-propyn-1-yl]phenyl}-4(1H)-pyridinone trifluoroacetate] | < 0.125 |
| Cc1[nH]c(C)c(-c2ccc(C#CCN(Cc3ccccc3)Cc3ccccc3)cc2)c(=O)c1Cl.Cl [Example 12, 3-(4-{3-[Bis(phenylmethyl)amino]-1-propyn-1-yl}phenyl)-5-chloro-2,6-dimethyl-4(1H)-pyridinone hydrochloride] | < 0.125 |
| Cc1[nH]c(C)c(-c2ccc(C#CCN3CCCCC3c3ccccc3)cc2)c(=O)c1Cl.Cl (stereo not drawn) [Example 13, 3-Chloro-2,6-dimethyl-5-{4-[3-(2-phenyl-1-piperidinyl)-1-propyn-1-yl]phenyl}-4(1H)-pyridinone hydrochloride] | < 0.125 |
| Cc1[nH]c(C)c(-c2ccc(C#CCN3CCC(c4ccccc4)CC3)cc2)c(=O)c1Cl [Example 10, 3-Chloro-2,6-dimethyl-5-{4-[3-(4-phenyl-1-piperidinyl)-1-propyn-1-yl]phenyl}-4(1H)-pyridinone] | < 0.125 |
| Cc1[nH]c(C)c(-c2ccc3sc(CN(C)Cc4ccc(OC(F)(F)F)cc4)cc3c2)c(=O)c1Cl.Cl [Example 31, 3-Chloro-2,6-dimethyl-5-(2-{[methyl({4-[(trifluoromethyl)oxy]phenyl}methyl)amino]methyl}-1-benzothien-5-yl)-4(1H)-pyridinone hydrochloride] | < 0.125 |
| Cc1[nH]c(C)c(-c2ccc(-c3ccc(CN(C)Cc4ccc(OC(F)(F)F)cc4)cc3)cc2)c(=O)c1Cl.Cl [Example 35, 3-Chloro-2,6-dimethyl-5-(4'-{[methyl({4-[(trifluoromethyl)oxy]phenyl}methyl)amino]methyl}-4-biphenylyl)-4(1H)-pyridinone hydrochloride] | < 0.125 |
| Cc1[nH]c(C)c(-c2ccc(-c3ccc(CN4CCC(c5ccc(OC(F)(F)F)cc5)CC4)cc3)cc2)c(=O)c1Cl.Cl [Example 33, 3-Chloro-2,6-dimethyl-5-{4'-[(4-{4-[(trifluoromethyl)oxy]phenyl}-1-piperidinyl)methyl]-4-biphenylyl}-4(1H)-pyridinone hydrochloride] | < 0.125 |
| CC(=O)Oc1c(Cl)c(C)nc(C)c1-c1ccc(-c2ccc(CN3CCC(c4ccc(OC(F)(F)F)cc4)CC3)cc2)cc1.Cl [Example 56, 3-Chloro-2,6-dimethyl-5-{4'-[(4-{4-[(trifluoromethyl)oxy]phenyl}-1-piperidinyl)methyl]-4-biphenylyl}-4-pyridinyl acetate hydrochloride] | < 0.125 |
| Cc1[nH]c(C)c(-c2ccc(CN3CCC(c4ccc(OC(F)(F)F)cc4)CC3)cc2)c(=O)c1Cl.Cl [Example 24, 3-Chloro-2,6-dimethyl-5-{4-[(4-{4-[(trifluoromethyl)oxy]phenyl}-1-piperidinyl)methyl]-phenyl}-4(1H)-pyridinone hydrochloride] | < 0.125 |

Continued, values first:

| IC50 [µg/mL] | SMILES |
| --- | --- |
| < 0.125 | Cc1[nH]c(C)c(-c2ccc(C#CCN(C)Cc3ccc(F)cc3F)cc2)c(=O)c1Cl.Cl [Example 40, 3-Chloro-5-(4-{3-[[(2,4-difluorophenyl)methyl](methyl)amino]-1-propyn-1-yl}phenyl)-2,6-dimethyl-4(1H)-pyridinone hydrochloride] |
| < 0.125 | Cc1[nH]c(C)c(-c2ccc(C#CCN(C)CCC(F)(F)F)cc2)c(=O)c1Cl.Cl [Example 49, 3-Chloro-2,6-dimethyl-5-(4-{3-[methyl(3,3,3-trifluoropropyl)amino]-1-propyn-1-yl}phenyl)-4(1H)-pyridinone hydrochloride] |
| < 0.125 | Cc1[nH]c(C)c(-c2ccc(CN(C)Cc3ccc(OC(F)(F)F)cc3)cc2)c(=O)c1Cl.Cl [Example 23, 3-Chloro-2,6-dimethyl-5-(4-{[methyl({4-[(trifluoromethyl)oxy]phenyl}methyl)amino]-methyl}phenyl)-4(1H)-pyridinone hydrochloride] |
| < 0.125 | Cc1[nH]c(C)c(-c2ccc(C#CCN(C)Cc3ccc(C(F)(F)F)cc3)cc2)c(=O)c1Cl [Example 2, 3-Chloro-2,6-dimethyl-5-{4-[3-(methyl{[4-(trifluoromethyl)phenyl]methyl}amino)-1-propyn-1-yl]phenyl}-4(1H)-pyridinone] |
| < 0.125 | Cc1[nH]c(C)c(-c2ccc(C#CCCN(C)Cc3ccc(OC(F)(F)F)cc3)cc2)c(=O)c1Cl.Cl [Example 18, 3-Chloro-2,6-dimethyl-5-(4-{4-[methyl({4-[(trifluoromethyl)oxy]phenyl}methyl)amino]-1-butyn-1-yl}phenyl)-4(1H)-pyridinone hydrochloride] |
| < 0.125 | Cc1[nH]c(C)c(-c2ccc(C#CCN(C)Cc3ccc(F)cc3)cc2)c(=O)c1Cl [Example 50, 3-Chloro-5-(4-{3-[[(4-fluorophenyl)methyl](methyl)amino]-1-propyn-1-yl}phenyl)-2,6-dimethyl-4(1H)-pyridinone] |
| < 0.125 | Cc1[nH]c(C)c(-c2ccc(C#CCN(C)Cc3ccc(S(C)(=O)=O)cc3)cc2)c(=O)c1Cl.Cl [Example 47, 3-Chloro-2,6-dimethyl-5-{4-[3-(methyl{[4-(methylsulfonyl)phenyl]methyl}amino)-1-propyn-1-yl]phenyl}-4(1H)-pyridinone hydrochloride] |
| < 0.125 | Cc1[nH]c(C)c(-c2ccc(C#CCN(C)Cc3ccc(OC(F)(F)F)cc3)cc2)c(=O)c1Cl [Example 1, 3-Chloro-2,6-dimethyl-5-(4-{3-[methyl({4-[(trifluoromethyl)oxy]phenyl}methyl)amino]-1-propyn-1-yl}phenyl)-4(1H)-pyridinone] |
